Legend:
Assay in all cases: relative viability (nuclei count vs DMSO), 5 days (fraction); higher = more cells survive
[1] = compound: CC1=CC(=CC=C1)NC2=NC(=CS2)C3=CC=NC=C3 + O=C(CCCCCCC(=O)Nc1ccccc1)NO [Vorinostat] (partner 1 µM)
In short: (§1)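 Relative viability divides the nuclei count in treated wells by that in vehicle wells. Lung cancer cell lines were seeded in 1536-well plates, dosed by pin tool the next day, and fixed and stained after 5 days in one step with final 0.05% Triton X-100, 1% formaldehyde and 1 ug/ml Hoechst. Dosing was a single drug or a fixed anchor-drug dose plus five library-drug doses (not always all listed) in √10 steps, and values are medians of duplicate plates imaged at 4×.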

[2] = compound: Cc1ccc(NC(=O)c2ccc(CN3CCN(C)CC3)cc2)cc1Nc1nc(-c2cccnc2)cs1 [Masitinib] + Cc1nc(Nc2ncc(C(=O)Nc3c(C)cccc3Cl)s2)cc(N2CCN(CCO)CC2)n1 [Dasatinib] (partner 0.075 µM)
In short: as §1

[3] = compound: Cc1ccc(NC(=O)c2ccc(CN3CCN(C)CC3)cc2)cc1Nc1nc(-c2cccnc2)cs1 [Masitinib] + O=C(CCCCCCC(=O)Nc1ccccc1)NO [Vorinostat] (partner 1 µM)
In short: as §1

[4] = compound: Cc1ccc(NC(=O)c2ccc(CN3CCN(C)CC3)cc2)cc1Nc1nc(-c2cccnc2)cs1 [Masitinib] + Nc1ncn([C@H]2C[C@H](O)[C@@H](CO)O2)c(=O)n1 [Decitabine] (partner 2 µM)
In short: as §1

Cell Line	relative viability ([1]; first compound 0.08 µM)	relative viability ([1]; first compound 0.253 µM)	relative viability ([1]; first compound 0.8 µM)	relative viability ([1]; first compound 2.53 µM)	relative viability ([1]; first compound 8 µM)	relative viability ([2]; first compound 0.01 µM)	relative viability ([2]; first compound 0.03162 µM)	relative viability ([2]; first compound 0.1 µM)	relative viability ([2]; first compound 0.3162 µM)	relative viability ([2]; first compound 1 µM)	relative viability ([3]; first compound 0.01 µM)	relative viability ([3]; first compound 0.03162 µM)	relative viability ([3]; first compound 0.1 µM)	relative viability ([3]; first compound 0.3162 µM)	relative viability ([3]; first compound 1 µM)	relative viability ([4]; first compound 0.01 µM)	relative viability ([4]; first compound 0.03162 µM)	relative viability ([4]; first compound 0.1 µM)	relative viability ([4]; first compound 0.3162 µM)	relative viability ([4]; first compound 1 µM)
LOU-NH91	0.766	0.776	0.887	0.861	0.436	0.557	0.511	0.54	0.442	0.546	0.84	0.795	0.884	0.793	0.883	0.797	0.754	0.792	0.785	0.783
ChaGo-K-1	0.681	0.735	0.734	0.777	0.777	0.577	0.575	0.54	0.546	0.629	0.901	0.711	0.853	0.775	0.732	0.553	0.526	0.536	0.526	0.534
NCI-H23	0.519	0.613	0.596	0.526	0.612	0.713	0.69	0.786	0.859	0.805	0.564	0.462	0.547	0.454	0.501	0.312	0.346	0.341	0.274	0.262
PC-3 [JPC-3]	0.579	–	0.811	0.575	0.803	0.984	0.839	0.973	0.927	0.954	0.753	0.554	0.779	0.748	0.667	0.828	0.771	0.824	0.819	0.785
NCI-H520	0.624	0.694	0.779	0.851	0.838	0.245	0.225	0.247	0.292	0.215	0.796	0.703	0.755	0.932	0.687	0.482	0.482	0.513	0.59	0.437
NCI-H1666	0.622	0.821	0.702	0.79	0.735	–	0.713	0.858	0.818	0.817	1.08	0.875	1.09	1.02	1.09	0.698	0.665	0.703	0.626	0.647
NCI-H727	0.967	–	1.1	–	1.24	0.332	0.315	0.346	0.383	0.35	1.13	1.36	1.38	0.988	1.09	0.808	1.03	0.763	0.729	0.781
HARA	0.492	0.523	0.501	0.391	0.302	–	0.289	0.283	0.152	0.258	0.498	0.539	0.57	0.521	0.485	0.474	0.4	0.634	–	0.508
NCI-H647	0.576	0.531	0.591	0.498	0.454	0.181	0.208	0.186	0.171	0.155	0.503	0.533	0.592	0.693	0.619	0.369	0.318	0.487	0.408	0.364
NCI-H1650	0.587	0.533	0.489	0.51	0.404	0.366	0.32	0.348	0.276	0.27	0.492	0.402	0.549	0.437	0.512	0.438	0.391	0.411	0.493	0.345
NCI-H2347	0.512	0.671	0.411	0.657	0.501	0.325	0.293	0.274	0.279	0.262	0.601	0.543	0.647	0.651	0.624	0.598	0.529	0.614	0.669	0.652
LCLC-97TM1	0.558	0.741	0.623	0.601	0.988	–	0.961	0.903	0.943	0.84	0.534	0.778	0.472	0.887	0.712	0.273	0.233	0.281	0.167	0.225
EPLC-272H	0.483	0.353	0.465	0.292	0.639	0.509	0.416	0.337	0.373	0.242	0.4	–	0.392	0.464	0.425	0.369	0.344	0.358	0.388	0.313
NCI-H522	0.91	1.03	1.01	0.924	0.849	0.818	–	0.823	0.887	0.879	0.822	0.904	1.07	1.06	0.821	0.707	0.897	0.8	0.696	0.646
NCI-H1975	0.656	0.694	0.593	0.707	0.554	0.427	0.403	0.427	–	0.279	0.693	0.736	0.724	0.716	0.711	0.324	0.417	0.381	0.293	0.34
NCI-H3122	0.912	0.709	1.05	1.03	0.961	0.512	0.724	0.61	0.615	0.916	0.844	0.982	1.15	1.14	1.05	0.528	0.484	0.525	0.467	0.451

Source: the supplement of paper PMC10307832
